Experimental data: patent publication US9809521B2, “Cannabidinoid derivatives” (priority 2011, dated 2017)

What was measured:
U251 cells = experiment: Organotypic brain slice invasion assay; format: cell-based, human; conditions: 1 μM
Experimental: (§1) Effects of CBD on GBM cell invasion in In Vivo Studies. To determine whether CBD could inhibit GBM cell invasion through intact brain tissue, an organotypic brain slice assay was utilized. GFP-labeled U251 cells were treated for two days in culture with vehicle or CBD. On the third day, the cells were harvested and transferred to the top of a 0.5 mm coronal rat brain slice obtain from a postnatal day 3 rat pup. A porous cell culture insert containing the slice was suspended for three days in a well containing conditioned media with either vehicle or 1 μM CBD. […] GBM tumors were generated in nu/nu mice by intracranial injection of U251 GBM cells. […] CBD produced a robust reduction of GBM progression, decreasing the tumor area by 95% (FIG. 14, panels B and C). […] This occurred concomitantly with a decrease in tumor cell proliferation (the number of Ki67-positive nuclei was decreased by 87%±9 (p<0.0001, Student's t-test)) (FIG. 14, panel D).

U251 GBM cells [1] = experiment: Intracranial U251 GBM xenograft in nu/nu mice; format: in vivo, mouse
Experimental: as §1

Ki67 = experiment: Immunohistochemical detection of Ki67 in lung metastatic foci; format: in vivo, mouse; conditions: 1 mg/kg
Experimental: CBD down-regulates Id-1 expression and breast cancer cell proliferation in lung metastatic foci. […] Lung tissue from mice treated with vehicle or CBD (1 mg/kg) were evaluated for Id-1 expression and Ki67, a marker of cellular proliferation (FIG. 5, panel A).
Immunohistochemical detection of Id-1 and Ki67 was performed in lung tissues of vehicle and CBD treated mice. Nuclei were stained with hematoxylin. […] The intensity of the immunohistochemical (IHC) detection of Id-1 was then graded from 0 to 4.

Id-1 = experiment: Quantitative Western analysis of Id-1 expression in U251 cells; format: cell-based, human
Experimental: Quantitative Western analysis of Id-1 expression in U251 cells with or without CBD treatment. To examine whether CBD would downregulate Id-1 protein expression in a GBM based cell line, quantitative Western analysis was performed with U251 cells.

U251 GBM cells [2] = experiment: Viability assay, combination with Temozolomide; format: cell-based, human
Experimental: Viability Assays using drug combinations and statistical analysis: Multiple viability assays in a 96 well format were run for each compound and the average percent inhibition of cell viability was calculated and transformed to fraction affected (Fa) i.e., percent inhibitory effect. Additional CI values and a dose reduction index (DRI) were also calculated using Compusyn software. After determining the (IC50/Fa0.5) values of the drugs individually, components were then combined at the following concentration ranges: controls, 0.125×IC50, 0.25×IC50, 0.5×IC50 and a combination index was calculated where CI<1, =1, and >1 indicate synergism, additive effect, and antagonism, respectively.
Cell viability studies with U251 GBM cells using CBD in combination with Temozolomide. […] The concentration response curves were first generated for temozolomide, CBD alone, and a combination of CBD and temozolomide (FIG. 16, panel A). The inhibitory values from the concentration response curves were then used to calculate combination index (CI) values at multiple combination ratios (FIG. 16, panel B). From which, the data was also used to calculate (i) IC50 values, the slope of the curve (m) and a goodness of fit value (r).

Id-1 promoter = Id-1 promoter luciferase reporter assay in MDA-MB231 cells; format: cell-based, human; conditions: 1.5 μM, 2 or 3 days
Experimental: Id-1 promoter reporter assays: A SacI-BspHI fragment of 2.2 kb corresponding to the 5′ upstream region of human Id-1 gene and driving a luciferase gene in a PGL-3 vector (Promega) was used (Id-1-sbsluc). Cells were plated in six well dishes in medium supplemented with 10% FBS and 5 μg/ml insulin. After 24 hours, cells were cotransfected with 6 μg of luciferase reporter plasmids and 2 μg of pCMVβ (Clontech) using Superfect reagent (Qiagen). pCMVβ contained bacterial β-galactosidase and served to control for variation in transfection efficiency. 3 hours after transfection, the cells were rinsed twice with PBS and were cultured in the absence or presence of CBD for 48-72 h. Cell pellets were lysed in 80 μl of reporter lysis buffer (Promega) for 10 min at room temperature. Lysed cells were centrifuged and supernatants harvested. Luciferase and β-gal assays were performed using Luciferase Assay System (Promega), β-Gal Assay Kit (Clontech) and a 2010 luminometer (Pharmingen).
Gene Expression Assays looking at Id-1 gene epression with CBD in MDA-MB231 cells. […] Twenty-four hours after transfection, MDA-MB231-Id-1-luc cells were treated with CBD for 2 or 3 days and luciferase activity was measured (FIG. 3, panel B and panel C). […] These findings correlated to the data obtained when the expression of the Id-1 protein was assessed by Western analysis.

Id-1 gene = experiment: PCR of Id-1 mRNA expression in MDA-MB231 cells; format: cell-based, human
Experimental: Polymerase Chain Reaction: Total cellular RNA was isolated from breast cancer cells treated with vehicle control or with CBD. Transcripts for Id-1 and for β-actin were reverse transcribed using SuperscriptII Reverse TranscriptaseII (Gibco-BRL), and polymerase chain reaction performed. The 5′ and 3′ PCR primers were […] (SEQ ID NO:1) and […] (SEQ ID NO:2) for Id-1; and […] (SEQ ID NO:3) and […] (SEQ ID NO:4) for β-actin. PCR was performed in buffer containing 1 μM of each of the 5′ and 3′ PCR primer and 0.5 U of Taq polymerase using 25 cycles for amplification of Id-1 and β-actin cDNAs. The cycle conditions were 45 sec denaturation at 94° C., 45 sec annealing at 55° C., and 1 min extension at 72° C.
Gene Expression Assays looking at Id-1 gene epression with CBD in MDA-MB231 cells. […] To determine if this effect was due to the inhibition of transcription, a construct was used that contained the Id-1 promoter fused to a luciferase reporter in a PGL-3 basic vector. This construct was transiently transfected into MDA-MB231 cells. Twenty-four hours after transfection, MDA-MB231-Id-1-luc cells were treated with CBD for 2 or 3 days and luciferase activity was measured (FIG. 3, panel B and panel C). […] These findings correlated to the data obtained when the expression of the Id-1 protein was assessed by Western analysis.

[3] = Toxicity observation in the mouse models of metastasis; conditions: in vivo
[4] = Tetrad assay (psychoactive properties of cannabinoids); conditions: in vivo

Compound: C=C(C)[C@@H]1CCC(C)=C[C@H]1c1c(O)cc(CCCCC)cc1O [CBD, cannabidiol]
- invasion of U251 cells through the organotypic brain slice (U251 cells): highly effective at inhibiting invasion
- mice in which no tumor cells were observed (U251 GBM cells [1]; 15 mg/kg): one of the five mice
- decrease of tumor area (U251 GBM cells [1]; 15 mg/kg i.p. 5 days a week for 28 days): 95%
- decrease in number of Ki67-positive nuclei (U251 GBM cells [1]; 15 mg/kg, tumors responding to treatment): 87%±9
- Id-1 expression in tumors (U251 GBM cells [1]; tumors responding to treatment): significant down-regulation of Id-1 expression
- Ki67 in metastatic foci (Ki67): significant down-regulation of Ki67
- Id-1 protein expression (Id-1): concentration-dependent inhibition of Id-1 protein expression
- interaction with Temozolomide (combination index) (U251 GBM cells [2]): acts synergistically with Temozolomide
- luciferase activity (Id-1 promoter) (Id-1 promoter): significant inhibition of luciferase activity
- Id-1 mRNA expression (Id-1 gene): significantly reduced

Compound: CCCCC(C)(C)c1cc(O)c(C2CCC(C3CCCCC3)CC2)c(O)c1 (stereo not drawn) [Compound O-1663]
- overt toxicity (weight, appearance, general activity) [3]: No overt toxicity
- activity in the tetrad assay [4]: little activity in the tetrad assay
